# Reference: patent US20230414599A1, “NICOTINAMIDE, NICOTINAMIDE PRECURSORS AND NICOTINAMIDE METABOLITES AND COMPOSITIONS THEREOF FOR REDUCING THE TIME TO RESOLUTION OF SYMPTOMS IN PATIENTS WITH COVID-19 AND OTHER VIRAL INFECTIONS” (CONARIS RESEARCH INSTITUTE AG, priority 2020, published 2023)
# Read-outs that look alike come from different tables or passages of the source.
# Test system: COVID-19
# Conditions: for Cough complaint scale, mean / Cough complaint scale, median / Change in cough complaint scale, mean / Change in cough complaint scale, median: n = 36; for Ability to perform normal activities, complaint scale 0-6, mean change / Ability to perform normal activities, complaint scale 0-6, median change: week 4 - baseline
# [1] = baseline, BMI ≥30.0 or type 2 diabetes, n = 27
# [2] = baseline, current or former smokers, n = 75
# [3] = baseline, patients with cough and fever, n = 15
# [4] = baseline, patients with cough, n = 106
# [5] = baseline, patients with fever, n = 21
# [6] = baseline, ≥1 risk factor for severe COVID-19, n = 117
# [7] = patients with cough and taste loss, baseline
# [8] = patients with cough and taste loss, week 2
# [9] = patients with cough and taste loss, week 2 - baseline
# [10] = patients with cough and taste loss, week 4
# [11] = patients with cough and taste loss, week 6
# [12] = patients with cough and taste loss, week 6 - baseline
# [13] = patients with cough, fever and taste loss, n = 6, week 4 compared to baseline
# [14] = patients with cough, fever and taste loss, n = 6, week 6 compared to baseline
# [15] = patients with fever and taste loss, n = 8, week 4 compared to baseline
# [16] = patients with fever and taste loss, n = 8, week 6 compared to baseline
# [17] = week 2 - baseline, BMI ≥30.0 or type 2 diabetes, n = 27, 500 mg IR + 500 mg CICR-NAM daily
# [18] = week 2, BMI ≥30.0 or type 2 diabetes, n = 27, 500 mg IR + 500 mg CICR-NAM daily
# [19] = week 2, current or former smokers, n = 75, 500 mg IR + 500 mg CICR-NAM daily
# [20] = week 2, patients with cough and fever, n = 15, 500 mg IR + 500 mg CICR-NAM daily
# [21] = week 2, patients with cough, n = 106, 500 mg IR + 500 mg CICR-NAM daily
# [22] = week 2, patients with fever, n = 21, 500 mg IR + 500 mg CICR-NAM daily
# [23] = week 2, ≥1 risk factor for severe COVID-19, n = 117, 500 mg IR + 500 mg CICR-NAM daily
# [24] = BMI ≥30.0 or type 2 diabetes, n = 27, 500 mg IR + 500 mg CICR-NAM daily
# [25] = patients with cough and fever, n = 15, 500 mg IR + 500 mg CICR-NAM daily
# [26] = patients with cough, n = 106, 500 mg IR + 500 mg CICR-NAM daily
# [27] = patients with fever, n = 21, 500 mg IR + 500 mg CICR-NAM daily
# [28] = week 4, BMI ≥30.0 or type 2 diabetes, n = 27, 500 mg IR + 500 mg CICR-NAM daily
# [29] = week 4, current or former smokers, n = 75, 500 mg IR + 500 mg CICR-NAM daily
smiles,measurement,setting,value
"NC(=O)c1cccnc1 [Nicotinamide, nicotinamide]","Ability to perform normal activities, complaint scale 0-6, mean",[1],3.037
same,"Ability to perform normal activities, complaint scale 0-6, median",[1],3.000
same,"Cough complaint scale 0-6, mean",[1],3.000
same,"Cough complaint scale 0-6, median",[1],3.000
same,"Ability to perform normal activities, complaint scale 0-6, mean",[2],3.373
same,"Ability to perform normal activities, complaint scale 0-6, median",[2],4.000
same,"Ability to perform normal activities, complaint scale 0-6, mean",[3],4.000
same,"Ability to perform normal activities, complaint scale 0-6, median",[3],4.0
same,"Ability to perform normal activities, complaint scale 0-6, mean",[4],2.915
same,"Ability to perform normal activities, complaint scale 0-6, median",[4],3.0
same,"Ability to perform normal activities, complaint scale 0-6, mean",[5],4.000
same,"Ability to perform normal activities, complaint scale 0-6, median",[5],4.0
same,"Ability to perform normal activities, complaint scale 0-6, mean",[6],3.188
same,"Ability to perform normal activities, complaint scale 0-6, median",[6],3.0
same,Cough complaint scale vs placebo (Table 7.1),patients with cough and taste loss,significant difference found in favour of placebo
same,"Cough complaint scale, mean",[7],2.194
same,"Cough complaint scale, median",[7],2.0
same,"Cough complaint scale, mean",[8],0.917
same,"Cough complaint scale, median",[8],0.0
same,"Change in cough complaint scale, mean",[9],−1.287
same,"Change in cough complaint scale, median",[9],−1.0
same,"Cough complaint scale, mean",[10],0.639
same,"Cough complaint scale, median",[10],0.0
same,"Cough complaint scale, mean",[11],0.417
same,"Cough complaint scale, median",[11],0.0
same,"Change in cough complaint scale, mean",[12],−1.778
same,"Change in cough complaint scale, median",[12],−2.0
same,"Change in fatigue: constant, number of patients",[13],1
same,"Change in fatigue: improved, %",[13],83.33%
same,"Change in fatigue: improved, number of patients",[13],5
same,"Change in fatigue: worse, %",[13],0.00%
same,"Change in fatigue: worse, number of patients",[13],0
same,"Change in fatigue: constant, number of patients",[14],2
same,"Change in fatigue: improved, %",[14],66.67%
same,"Change in fatigue: improved, number of patients",[14],4
same,"Change in fatigue: worse, %",[14],0.00%
same,"Change in fatigue: worse, number of patients",[14],0
same,"Change in fatigue: constant, number of patients",[15],1
same,"Change in fatigue: improved, %",[15],87.50%
same,"Change in fatigue: improved, number of patients",[15],7
same,"Change in fatigue: worse, %",[15],0.00%
same,"Change in fatigue: worse, number of patients",[15],0
same,"Change in fatigue: constant, number of patients",[16],2
same,"Change in fatigue: improved, %",[16],75.00%
same,"Change in fatigue: improved, number of patients",[16],6
same,"Change in fatigue: worse, %",[16],0.00%
same,"Change in fatigue: worse, number of patients",[16],0
same,"Effect on the ability to perform normal activities, fatigue and reduced physical performance","patients with ≥1 risk factor for severe COVID-19, futility analysis",biologically and statistically significant positive effect
same,"Cough complaint scale 0-6, mean change",[17],−1.815
same,"Cough complaint scale 0-6, median change",[17],−2.000
same,"Ability to perform normal activities, complaint scale 0-6, mean",[18],1.556
same,"Ability to perform normal activities, complaint scale 0-6, median",[18],1.000
same,"Cough complaint scale 0-6, mean",[18],1.185
same,"Cough complaint scale 0-6, median",[18],1.000
same,"Ability to perform normal activities, complaint scale 0-6, mean",[19],1.093
same,"Ability to perform normal activities, complaint scale 0-6, median",[19],0.000
same,"Presence of cough constant vs baseline, % of patients",[19],60.00%
same,"Presence of cough constant vs baseline, patients",[19],45
same,"Presence of cough improved vs baseline, % of patients",[19],36.00%
same,"Presence of cough improved vs baseline, patients",[19],27
same,"Presence of cough worse vs baseline, % of patients",[19],4.00%
same,"Presence of cough worse vs baseline, patients",[19],3
same,"Ability to perform normal activities, complaint scale 0-6, mean",[20],1.733
same,"Ability to perform normal activities, complaint scale 0-6, median",[20],2.0
same,"Ability to perform normal activities, complaint scale 0-6, mean",[21],1.226
same,"Ability to perform normal activities, complaint scale 0-6, median",[21],1.0
same,"Ability to perform normal activities, complaint scale 0-6, mean",[22],1.381
same,"Ability to perform normal activities, complaint scale 0-6, median",[22],1.0
same,"Ability to perform normal activities, complaint scale 0-6, mean",[23],1.299
same,"Ability to perform normal activities, complaint scale 0-6, median",[23],1.0
same,"Fatigue constant vs baseline, % of patients",[23],57.26%
same,"Fatigue constant vs baseline, patients",[23],67
same,"Fatigue improved vs baseline, % of patients",[23],40.17%
same,"Fatigue improved vs baseline, patients",[23],47
same,"Fatigue worse vs baseline, % of patients",[23],2.56%
same,"Fatigue worse vs baseline, patients",[23],3
same,"Ability to perform normal activities, complaint scale 0-6, mean change",[24],−1.667
same,"Ability to perform normal activities, complaint scale 0-6, median change",[24],−2.000
same,"Ability to perform normal activities, complaint scale 0-6, mean change",[25],−2.800
same,"Ability to perform normal activities, complaint scale 0-6, median change",[25],−3.0
same,"Ability to perform normal activities, complaint scale 0-6, mean change",[26],−2.179
same,"Ability to perform normal activities, complaint scale 0-6, median change",[26],−2.0
same,"Ability to perform normal activities, complaint scale 0-6, mean change",[27],−2.952
same,"Ability to perform normal activities, complaint scale 0-6, median change",[27],−3.0
same,"Ability to perform normal activities constant vs baseline, % of patients",[28],14.81%
same,"Ability to perform normal activities constant vs baseline, patients",[28],4
same,"Ability to perform normal activities improved vs baseline, % of patients",[28],74.07%
same,"Ability to perform normal activities improved vs baseline, patients",[28],20
same,"Ability to perform normal activities worse vs baseline, % of patients",[28],11.11%
same,"Ability to perform normal activities worse vs baseline, patients",[28],3
same,"Ability to perform normal activities, complaint scale 0-6, mean",[28],1.370
same,"Ability to perform normal activities, complaint scale 0-6, median",[28],1.000
same,"Cough complaint scale 0-6, mean",[28],0.815
same,"Cough complaint scale 0-6, median",[28],0.000
same,"Ability to perform normal activities constant vs baseline, % of patients",[29],9.33%
same,"Ability to perform normal activities constant vs baseline, patients",[29],7
same,"Ability to perform normal activities improved vs baseline, % of patients",[29],84.00%
same,"Ability to perform normal activities improved vs baseline, patients",[29],63
